Test results reported in patent publication US9434763B2, “Derivatives of pyridinone as inhibitors for tissue transglutaminase” (ZEDIRA GMBH, priority 2012, dated 2016).

Key:
Type in all cases: biochemical
TG1 (transglutaminase 1) = biological target: T1, TG1 (transglutaminase 1) (Homo sapiens, UniProt P22735); assay: Comparative transglutaminase selectivity assay with casein and dansylcadaverine as substrates: TG1; settings: casein as substrate
T1 construct: purchased Zedira T009
T1 sequence (P22735 1-817): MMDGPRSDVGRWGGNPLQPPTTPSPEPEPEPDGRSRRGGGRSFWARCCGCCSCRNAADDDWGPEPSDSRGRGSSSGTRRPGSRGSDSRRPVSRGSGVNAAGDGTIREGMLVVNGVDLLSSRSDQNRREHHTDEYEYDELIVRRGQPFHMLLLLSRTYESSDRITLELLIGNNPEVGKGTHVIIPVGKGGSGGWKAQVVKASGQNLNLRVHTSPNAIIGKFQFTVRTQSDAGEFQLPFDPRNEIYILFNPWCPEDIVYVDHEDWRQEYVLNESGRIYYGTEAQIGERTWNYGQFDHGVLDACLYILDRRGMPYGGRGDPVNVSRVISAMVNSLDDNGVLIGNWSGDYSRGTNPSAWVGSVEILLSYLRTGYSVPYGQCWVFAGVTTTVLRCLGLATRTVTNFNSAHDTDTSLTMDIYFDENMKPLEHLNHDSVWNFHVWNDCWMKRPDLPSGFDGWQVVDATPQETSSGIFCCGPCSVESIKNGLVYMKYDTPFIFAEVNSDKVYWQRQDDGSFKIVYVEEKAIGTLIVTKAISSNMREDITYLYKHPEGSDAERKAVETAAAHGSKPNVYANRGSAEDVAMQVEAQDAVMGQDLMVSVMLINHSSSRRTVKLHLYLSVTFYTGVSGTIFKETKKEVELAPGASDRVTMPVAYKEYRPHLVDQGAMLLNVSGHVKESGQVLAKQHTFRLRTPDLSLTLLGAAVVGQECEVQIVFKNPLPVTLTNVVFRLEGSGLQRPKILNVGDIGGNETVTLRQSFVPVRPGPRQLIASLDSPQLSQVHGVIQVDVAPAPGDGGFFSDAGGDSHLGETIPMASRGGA
Source text: (§1) The comparative determination of different transglutaminases to determine the selectivity was made with casein and dansylcadaverine as substrates. Therefore, the kit T036 (Zedira, Darmstadt; Refs: Lorand et al, Anal Biochem, 1971, 44:221-31) as well as transglutaminase products T009 (transglutaminase 1), T012 (transglutaminase 3), T021 (transglutaminase 6) and T027 (plasma transglutaminase, factor XIII) are used. Therefore, two different IC50 values for the compounds are given.
(§2) The evaluation of the resulting enzyme activity is done using the slope of the straight line obtained by the increase in fluorescence.
(§3) To determine the non-inhibited enzyme activity, DMSO instead of inhibitor stock solution is used. IC50 values are determined by plotting the resulting enzyme activity against the logarithm of the inhibitor concentration. IC50 is defined as the concentration of inhibitor resulting in 50% of enzyme activity.
(§4) It should be noted that it was measured here against casein as substrate, which is why other apparent inhibition values (IC50 value) result.

[1] = biological target: T2, tissue transglutaminase (TG2) (Homo sapiens, UniProt P21980); assay: Comparative transglutaminase selectivity assay with casein and dansylcadaverine as substrates (kit T036): TG2; settings: casein as substrate (apparent IC50)
T2 construct: purchased Zedira T036 (kit)
T2 sequence (P21980 1-687): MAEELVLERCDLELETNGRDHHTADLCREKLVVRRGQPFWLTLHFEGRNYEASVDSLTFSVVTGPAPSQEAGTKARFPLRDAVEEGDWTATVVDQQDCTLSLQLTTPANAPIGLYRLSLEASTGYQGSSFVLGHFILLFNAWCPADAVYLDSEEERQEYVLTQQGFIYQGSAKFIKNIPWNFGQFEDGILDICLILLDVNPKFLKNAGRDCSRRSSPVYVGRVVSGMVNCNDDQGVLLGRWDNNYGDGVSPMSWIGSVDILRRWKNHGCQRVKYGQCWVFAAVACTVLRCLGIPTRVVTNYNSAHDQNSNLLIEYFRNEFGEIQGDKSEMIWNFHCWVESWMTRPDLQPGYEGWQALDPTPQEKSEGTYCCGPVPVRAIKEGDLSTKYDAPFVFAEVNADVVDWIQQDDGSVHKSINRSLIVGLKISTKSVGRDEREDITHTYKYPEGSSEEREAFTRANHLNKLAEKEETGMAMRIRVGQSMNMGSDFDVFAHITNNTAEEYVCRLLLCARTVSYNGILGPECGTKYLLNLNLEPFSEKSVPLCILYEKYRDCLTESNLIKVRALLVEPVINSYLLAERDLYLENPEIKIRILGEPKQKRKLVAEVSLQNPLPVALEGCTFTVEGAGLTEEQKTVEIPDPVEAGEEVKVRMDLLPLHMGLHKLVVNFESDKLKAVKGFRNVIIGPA
Source text: as §1, §2, §3, §4

TG6 (transglutaminase 6) = biological target: T3, TG6 (transglutaminase 6) (Homo sapiens, UniProt O95932); assay: Comparative transglutaminase selectivity assay with casein and dansylcadaverine as substrates: TG6; settings: casein as substrate
T3 construct: purchased Zedira T021
T3 sequence (O95932 1-706): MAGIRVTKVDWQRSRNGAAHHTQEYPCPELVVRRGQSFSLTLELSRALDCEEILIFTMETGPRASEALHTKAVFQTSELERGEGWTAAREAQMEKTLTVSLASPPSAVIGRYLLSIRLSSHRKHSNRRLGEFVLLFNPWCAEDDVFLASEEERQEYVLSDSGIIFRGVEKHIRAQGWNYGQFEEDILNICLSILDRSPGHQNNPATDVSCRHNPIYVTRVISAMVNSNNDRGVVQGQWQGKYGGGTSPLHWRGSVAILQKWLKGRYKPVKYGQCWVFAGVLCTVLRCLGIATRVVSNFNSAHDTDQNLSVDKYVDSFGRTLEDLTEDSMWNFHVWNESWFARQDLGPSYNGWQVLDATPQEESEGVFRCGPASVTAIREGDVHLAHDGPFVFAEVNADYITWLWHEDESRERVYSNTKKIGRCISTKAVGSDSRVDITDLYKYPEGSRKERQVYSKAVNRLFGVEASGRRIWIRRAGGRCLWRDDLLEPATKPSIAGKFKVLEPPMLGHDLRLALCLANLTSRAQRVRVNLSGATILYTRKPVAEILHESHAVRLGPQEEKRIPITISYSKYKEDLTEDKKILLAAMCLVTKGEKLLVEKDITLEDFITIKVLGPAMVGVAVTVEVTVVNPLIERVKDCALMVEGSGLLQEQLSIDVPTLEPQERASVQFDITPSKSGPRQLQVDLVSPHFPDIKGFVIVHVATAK
Source text: as §1, §2, §3, §4

| SMILES | IC50 (TG1 (transglutaminase 1)) [µM] | IC50 [1] [µM] | IC50 (TG6 (transglutaminase 6)) [µM] |
| --- | --- | --- | --- |
| CCOC(=O)/C=C/CC[C@H](NC(=O)c1cncn1C)C(=O)Nc1cccn(CC(=O)NCCC(C)C)c1=O [A19, (S,E)-Ethyl 7-(1-(2-(isopentylamino)-2-oxoethyl)-2-oxo-1,2-dihydropyridin-3-ylamino)-6-(1-methyl-1H-imidazole-5-carboxamido)-7-oxohept-2-enoate] | 96 | 2.39 | 54.3 |
| CCOC(=O)/C=C/CC[C@H](NC(=O)CCC(=O)O)C(=O)Nc1cccn(CC(=O)NCCC(C)C)c1=O [A24, (S,E)-4-(7-Ethoxy-1-(1-(2-(isopentylamino)-2-oxoethyl)-2-oxo-1,2-dihydropyridin-3-ylamino)-1,7-dioxohept-5-en-2-ylamino)-4-oxobutanoic acid] | 91.9 | 7.5 | 38.5 |
| CCOC(=O)/C=C/CC[C@H](NC(=O)CCC(=O)O)C(=O)Nc1cccn(CC(=O)NCC(CC)CC)c1=O [A30, (S,E)-4-(7-Ethoxy-1-(1-(2-(2-ethylbutylamino)-2-oxoethyl)-2-oxo-1,2-dihydropyridin-3-ylamino)-1,7-dioxohept-5-en-2-ylamino)-4-oxobutanoic acid] | 113 | 3.26 | 32.8 |
| CCOC(=O)/C=C/CC[C@H](NC(C)=O)C(=O)Nc1cccn(CC(=O)N[C@H](C(=O)OC)[C@H](C)CC)c1=O [A35, (S,E)-ethyl 6-acetamido-7-(1-(2-((2S,3R)-1-methoxy-3-methyl-1-oxopentan-2-ylamino)-2-oxoethyl)-2-oxo-1,2-dihydropyridin-3-ylamino)-7-oxohept-2-enoate] | 87.1 | 1 | 21.3 |
| CCOC(=O)/C=C/CC[C@H](NC(C)=O)C(=O)Nc1cccn(CC(=O)NCCC(CC)CC)c1=O [A42, (S,E)-ethyl 6-acetamido-7-(1-(2-(3-ethylpentylamino)-2-oxoethyl)-2-oxo-1,2-dihydropyridin-3-ylamino)-7-oxohept-2-enoate] | 86 | 7.1 | 36.7 |
| CCOC(=O)/C=C/CC[C@H](NC(=O)c1cncn1C)C(=O)Nc1cccn(CC(=O)N[C@H](C(=O)O)[C@H](C)CC)c1=O [A53, (2S,3R)-2-(2-(3-((S,E)-7-Ethoxy-2-(1-methyl-1H-imidazole-5-carboxamido)-7-oxohept-5-enamido)-2-oxopyridin-1(2H)-yl)acetamido)-3-methylpentanoic acid] | 68.9 | 0.833 | 26.2 |
| CCOC(=O)/C=C/CC[C@H](NC(=O)c1cncn1C)C(=O)Nc1cccn(CC(=O)NCC(CC)CC)c1=O [A58, (S,E)-Ethyl 7-(1-(2-(2-ethylbutylamino)-2-oxoethyl)-2-oxo-1,2-dihydropyridin-3-ylamino)-6-(1-methyl-1H-imidazole-5-carboxamido)-7-oxohept-2-enoate] | 97.5 | 1.54 | 66 |
| CCOC(=O)/C=C/CC[C@H](NC(C)=O)C(=O)Nc1cccn(CC(=O)NCC(CC)CC)c1=O [A62, (S,E)-Ethyl 6-acetamido-7-(1-(2-(2-ethylbutylamino)-2-oxoethyl)-2-oxo-1,2-dihydropyridin-3-ylamino)-7-oxohept-2-enoate] | 133 | 1.96 | 47 |
| CCC(CC)CNC(=O)Cn1cccc(NC(=O)[C@H](CC/C=C/C(=O)OC)NC(=O)c2cncn2C)c1=O [A63, (S,E)-Methyl 7-(1-(2-(2-ethylbutylamino)-2-oxoethyl)-2-oxo-1,2-dihydropyridin-3-ylamino)-6-(1-methyl-1H-imidazole-5-carboxamido)-7-oxohept-2-enoate] | 51.8 | 0.218 | 31.5 |
| COC(=O)/C=C/CC[C@H](NC(C)=O)C(=O)Nc1cccn(CC(=O)N2CCCC(C)C2)c1=O (stereo partly drawn) [A64, (6S,E)-Methyl 6-acetamido-7-(1-(2-(3-methylpipendin-1-yl)-2-oxoethyl)-2-oxo-1,2-dihydropyridin-3-ylamino)-7-oxohept-2-enoate] | 122 | 3 | 109 |

Molecules with a lower IC50 (TG1 (transglutaminase 1)), results first:

| IC50 (TG1 (transglutaminase 1)) [µM] | IC50 [1] [µM] | IC50 (TG6 (transglutaminase 6)) [µM] | SMILES |
| --- | --- | --- | --- |
| 37.1 | 0.461 | 9.3 | CCOC(=O)/C=C/CC[C@H](NC(=O)c1ccccc1)C(=O)Nc1cccn(CC(=O)N[C@H](C(=O)O)[C@H](C)CC)c1=O [A59, (2S,3R)-2-(2-(3-((S,E)-2-Benzamido-7-ethoxy-7-oxohept-5-enamido)-2-oxopyridin-1(2H)-yl)acetamido)-3-methylpentanoic acid] |
| 31.1 | 0.112 | 11.5 | CC[C@@H](C)[C@H](NC(=O)Cn1cccc(NC(=O)[C@H](CC/C=C/C(=O)OC)NC(=O)c2cncn2C)c1=O)C(=O)O [A60, (2S,3R)-2-(2-(3-((S,E)-7-Methoxy-2-(1-methyl-1H-imidazole-5-carboxamido)-7-oxohept-5-enamido)-2-oxopyridin-1(2H)-yl)acetamido)-3-methylpentanoic acid] |
| 28.8 | 3.6 | 51 | CCOC(=O)/C=C/CC[C@H](NC(C)=O)C(=O)Nc1cccn(CC(=O)NCCC(C)C)c1=O [A7, (S,E)-Ethyl 6-acetamido-7-(1-(2-(isopentylamino)-2-oxoethyl)-2-oxo-1,2-dihydropyridin-3-ylamino)-7-oxohept-2-enoate] |
| 28.1 | 0.4 | 83.3 | COC(=O)/C=C/CC[C@H](NC(C)=O)C(=O)Nc1cccn(CC(=O)NCCC(C)C)c1=O [A29, (S,E)-methyl 6-acetamido-7-(1-(2-(isopentylamino)-2-oxoethyl)-2-oxo-1,2-dihydropyridin-3-ylamino)-7-oxohept-2-enoate] |
| 15.3 | 0.079 | 4.3 | CC[C@@H](C)[C@H](NC(=O)Cn1cccc(NC(=O)[C@H](CC/C=C/C(=O)OC)NC(=O)c2ccccc2)c1=O)C(=O)O [A61, (2S,3R)-2-(2-(3-((S,E)-2-benzamido-7-methoxy-7-oxohept-5-enamido)-2-oxopyridin-1(2H)-yl)acetamido)-3-methylpentanoic acid] |
